Source: patent publication US20260097049A1, “C[…] AND METHODS OF USE FOR TREATMENT AND PREVENTION OF CANCER” (BlackStone Therapeutics, LLC, priority 2022, published 2026)

Key:
MiaPaCA-2 = assay: CellTiterGlo cell viability, MiaPaCA-2 cells; format: cell-based; details: Homo sapiens, MIA PaCa-2, 72 h
Description: (§1) The IC50 values for (R)-H4CBD, (S)-H4CBD, H4CBDV racemic mixture, and bortezomib were determined. Compound treatment of cells started one day after seeding with a final DMSO concentration of 0.1% and was performed by nanodrop-dispensing using a Tecan Dispenser. 0.1% DMSO (solvent) and Staurosporine (1,0E-05M) served as high control (100% viability) and low control (0% viability), respectively. For the assays, cells were seeded in white cell culture-treated flat and clear bottom multiwell plates and incubated at 37° C. overnight before compounds were added. After incubation for 72 h at 37° C. at 5% or 10% CO2 dependent on the medium, cell plates were equilibrated to room temperature for one hour, CellTiterGlo reagent (Promega) was added and luminescence was measured approximately an hour later using a luminometer.
(§2) Raw data were converted into percent cell viability relative to the high and low control, which were set to 100% and 0%, respectively. IC50 calculation was performed using GraphPad Prism software with a variable slope sigmoidal response fitting model using 0% viability as bottom constraint and 100% viability as top constraint. IC50 results in PANC-1, MIA-PaCa2, and AsPC-1 cells for (R)-H4CBD, (S)-H4CBD, H4CBDV racemic mixture, and bortezomib are shown in FIGS. 10-12 and Table 2

[1] = Potential maximum tolerated dosages in mice; format: in vivo
Description: To determine potential maximum tolerated dosages, 3.12, 6.25, 10, and 12.5 mg/kg of CCL-106, for 2, 2, 1, and 1 doses respectively, were administered to mice. […] Mice were administered high doses of CCL-104 and CCL-106.

AsPC-1 = assay: CellTiterGlo cell viability, AsPC-1 cells; format: cell-based; details: Homo sapiens, ASPC1, 72 h
Description: as §1, §2

PANC-1 = assay: CellTiterGlo cell viability, PANC-1 cells; format: cell-based; details: Homo sapiens, 72 h
Description: as §1, §2

For `CCCc1cc(O)c(C2CC(C)CCC2C(C)C)c(O)c1` (racemic) [CCL-106, hexahydrocannabidivarin], the IC50 (MiaPaCA-2) was 530 nM, the toxicity observed ([1]; 12.5 mg/kg, mouse) was “acute toxicity for CCL-106 (strong tremors and weight loss)” and the toxicity observed ([1]; 15.63 mg/kg dose at each of days 5, 6, and 7, mouse) was “seizure like symptoms but recovered more quickly (around 30 minutes)”. For the same compound, the toxicity observed ([1]; 31.25 mg/kg dose, mouse) was “stop moving after about 2 minutes and have seizure like symptoms”, the toxicity observed ([1]; 39.06 mg/kg dose, mouse) was “killed a mouse immediately” and the toxicity observed ([1]; 46.87 mg/kg dose, mouse) was “killed a mouse immediately”. For the same compound, the toxicity observed ([1]; 3.12, 6.25, and 10 mg/kg dose, mice) was “No toxicity was observed”, the tail vein toxicity ([1]; daily 31.25 mg/kg doses, mouse) was “displayed tail vein toxicity on day 2” and the IC50 (AsPC-1) was 1050 nM. The IC50 (PANC-1) was 789 nM.
